“Also recorded” adds a separate entry of the source.
Experiments:
p53-MDM4 complex = biological target: T1, p53-MDM4 complex (Homo sapiens, UniProt O15151); experiment: MDM4 immunoprecipitation from TC32 cell lysates, p53 and MDM4 Western blot; type: binding; settings: TC32 lysates after RG7388 pre-treatment, 20 μM compound
T1 construct: endogenous in cells; host or cells: TC32 Ewing sarcoma cells (TP53 wild-type), lysed in NP-40 buffer
T1 sequence (O15151 1-490): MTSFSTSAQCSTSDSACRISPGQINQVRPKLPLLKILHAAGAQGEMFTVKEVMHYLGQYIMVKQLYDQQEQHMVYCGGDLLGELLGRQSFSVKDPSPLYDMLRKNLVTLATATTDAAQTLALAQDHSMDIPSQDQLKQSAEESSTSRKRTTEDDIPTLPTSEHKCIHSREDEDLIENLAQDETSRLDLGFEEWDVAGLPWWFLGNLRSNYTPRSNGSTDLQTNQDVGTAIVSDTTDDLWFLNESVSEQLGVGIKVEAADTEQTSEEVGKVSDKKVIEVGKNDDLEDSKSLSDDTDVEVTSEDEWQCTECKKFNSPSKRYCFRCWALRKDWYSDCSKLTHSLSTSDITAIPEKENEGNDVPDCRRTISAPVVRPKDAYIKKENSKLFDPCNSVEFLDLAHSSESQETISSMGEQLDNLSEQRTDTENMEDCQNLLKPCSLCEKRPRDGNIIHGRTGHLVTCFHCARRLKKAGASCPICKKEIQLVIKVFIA
Procedure: g. Immunoprecipitation Experiments
Five million TC32 cells were treated with either 10 μM RG7388 or vehicle control for 4 h. Cells were lysed in buffer A (150 mM NaCl, 50 mM Tris, and 0.5% NP-40, pH 7.4) and combined with anti-MDM4 antibody (A300-287A; Bethyl Laboratories) in the presence of 20 μM RG7388, ATSP-7041, or vehicle control in a total volume of 1 ml, rotating at 4° C. for 16 h. Subsequently, 50 μl washed Protein AG beads (sc-2003; Santa Cruz) were added and the mixture was incubated for 1 h rotating at 4° C. Beads were washed three times in buffer A, and protein complexes were eluted by boiling in NuPage® LDS Sample Buffer (NP0007; Invitrogen) supplemented with DTT. Samples were analyzed by Western blot with antibodies against p53 DO-1 (sc-126; Santa Cruz) and MDM4 (A300-287A; Bethyl Laboratories).

PDX tumors (HSJD-ES-002) = experiment: Ewing sarcoma PDX (HSJD-ES-002) anti-tumor efficacy study; type: in vivo, mice
Procedure: (§1) j. Ewing Sarcoma Xenograft Studies
(§2) For anti-tumor efficacy studies, tumor xenografts were established in 15 nude female mice by implanting three million TC32 cells into the right flank. Animals were randomized to either 20 d of treatment with 30 mg/kg q.o.d. IV ATSP-7041 (n=8) or vehicle (n=7) for a total of 10 doses. Treatment was started when tumors reached 100-200 mm3. Tumor volumes were measured with calipers twice a week. For PDX studies, tumor fragments were implanted into the right flank of nude female mice by minor surgery. After tumor engraftment, studies were performed as described for TC32 xenograft studies.
(§3) For in vivo studies, ATSP-7041 was prepared using the following protocol: mPEG-DSPE (Nanocs) was dissolved in chloroform and dried by a rotary evaporator. ATSP-7041 was dissolved in 1 M NaOH and diluted 100-fold in 10 mM histidine-buffered saline to a final concentration of 3 mg/ml. This mixture was added to the dried lipid film to a final mPEG-DSPE concentration of 50 mg/ml and final pH 7. The film was rehydrated by brief sonication and heating in a 50° C. water bath. The mixture was then subjected to five freeze-thaw cycles in liquid nitrogen and 40° C. water, respectively, and the solution passed 10 times through an Avanti Mini-Extruder Set (Avanti Polar Lipids) equipped with a 800-nm filter (Whatman).

TC32 xenograft tumors = experiment: TC32 Ewing sarcoma xenograft anti-tumor efficacy study; type: in vivo, mice; settings: 30 mg/kg IV every other day for 20 d (10 doses) vs vehicle
Procedure: as §1, §2, §3

TP53 knockout cells = experiment: CellTiter-Glo cell viability assay, TP53 knockout cells; type: cell-based
Procedure: Lentivirus was produced by transfecting HEK-293T cells with the pLentiV2 vector (Addgene plasmid 52961) and the packaging plasmids pCMV8.9 and pCMV-VSVG according to the FuGENER 6 (Roche) protocol. For lentiviral transduction, Ewing sarcoma cells were incubated with 2 ml of virus and 8 μg/ml of polybrene (Sigma-Aldrich). Cells were selected in puromycin (Sigma-Aldrich) 48 h after infection for single knockout experiments. For dual knockout experiments, PPM1D, USP7, and MDM4 sgRNA sequences were cloned into a LentiV2 vector with a blasticidin selection marker (Addgene plasmid 83480).
d. sgRNA Sequences sgRNAs were designed using the Broad Institute's sgRNA designer tool. The following sequences were used as control or to target the respective genes: control sgRNA, 5′-[…]-3′ (SEQ ID NO: 125); sgMDM2 2: 5′-[…]-3′ (SEQ ID NO: 126); sgMDM2 5: 5′-[…]-3′ (SEQ ID NO: 127); sgMDM4 4: 5′-[…]-3′ (SEQ ID NO: 128); sgMDM4 6: 5′-[…]-3′ (SEQ ID NO: 129); sgUSP7 1: 5′-[…]-3′ (SEQ ID NO: 130); sgUSP7 2: 5′-ACCATACCCAAATTATTC CG-3′ (SEQ ID NO: 131); sgPPMID 1: 5′-[…]-3′ (SEQ ID NO: 132); sgPPMID 2: 5′-[…]-3′ (SEQ ID NO: 133); sgTP53 1: 5′-[…]-3′ (SEQ ID NO: 134); sgTP53 2: 5′-[…]-3′ (SEQ ID NO: 135); sgTP53 4: 5′-[…]-3′ (SEQ ID NO: 136); and sgTP53 5: 5′-[…]-3′ (SEQ ID NO: 137). e. Protein Extraction and Immunoblotting
(§4) Cell viability was assessed using the CellTiter-Glo® Luminescent Cell Viability Assay (Promega). Viability assays were performed after Ewing sarcoma cell lines were infected with sgRNAs targeting TP53, MDM2, MDM4, PPM1D, or USP7 or treated with ATSP-7041, ATSP-7342, GSK2830371, P5091, XL-188, or vehicle control.

[1] = system: TP53 wild-type Ewing sarcoma cell lines; experiment: CellTiter-Glo cell viability assay, TP53 wild-type Ewing sarcoma cell lines; type: cell-based; settings: TP53 wild-type Ewing sarcoma cell lines, treated for 3 d, micromolar concentrations
Procedure: as §4

For `CC(=O)N[C@@H](CC(C)C)C(=O)N[C@H](C(=O)N[C@@H](Cc1ccccc1)C(=O)N[C@]1(C)CCCCCCC=CCCC[C@@](C)(C(=O)N[C@@H](CO)C(=O)N[C@@H](C)C(=O)N[C@@H](C)C(N)=O)NC(=O)[C@H](CC2CCC2)NC(=O)[C@H](CCC(N)=O)NC(=O)[C@H](C)NC(=O)[C@H](Cc2c[nH]c3ccccc23)NC(=O)[C@H](Cc2ccc(O)cc2)NC(=O)[C@H](CCC(=O)O)NC1=O)[C@@H](C)O` [ATSP-7041, Ac-Leu17-Thr-Phe-cyclo(R8-Glu-Tyr-Trp-Ala-Gln-Cba-S5)-Ser-Ala-Ala30-NH2], the “disruption of p53-MDM4 complex (MDM4 immunoprecipitation)” value (p53-MDM4 complex) was “partial disruption of p53-MDM4 complex; also recorded: decreased the level of p53-MDM4 interaction”, the survival of mice (PDX tumors (HSJD-ES-002); PDX HSJD-ES-002, 10 doses 30 mg/kg q.o.d. vs vehicle) was “significantly extended” and the “tumor growth (normalized tumor volume)” value (PDX tumors (HSJD-ES-002); PDX HSJD-ES-002, 10 doses 30 mg/kg q.o.d. vs vehicle, 30 mg/kg) was “slowed significantly; also recorded: slowed in all mice”. The complete tumor regression (PDX tumors (HSJD-ES-002); PDX HSJD-ES-002, one mouse of n=8, observed time frame of 227 d) was “complete tumor regression without recurrence; also recorded: one out of eight mice achieved complete and sustained remission of disease”, the “tumor growth (normalized tumor volume)” value (TC32 xenograft tumors) was “significantly suppressed tumor growth” and the “effect of TP53 knockout on the cytotoxic effect of the compound (viability)” value (TP53 knockout cells) was “fully rescues the cytotoxic effect”. The “cell viability, normalized to vehicle control” value [1] was “selectively reduced the viability”.

From patent publication US12480163B2, “Compositions and methods for identification assessment, prevention, and treatment of Ewing sarcoma using TP53 dependency biomarkers and modulators” (Dana-Farber Cancer Institute, Inc., priority 2018, dated 2025)
